Results taken from patent publication US20180132458A1, “TRANSGENIC ANIMAL MODELS FOR CYSTIC FIBROSIS” (THE REGENTS OF THE UNIVERSITY OF MICHIGAN, priority 2016, published 2018).

Test system: forskolin/IBMX-stimulated CFTR Cl current in ileum tissue
Assay: Short-circuit current of freshly excised ileum tissue measured by Ussing chamber
Format: cell-based, rabbit
Conditions: CFTR+/+ rabbits
Procedure: (Panel A) Immunocytochemistry of lungs and small intestines from CFTR+/+ and CFTR−/− rabbits. Red: CFTR; blue: nuclei. (Panel B) Short circuit current measurements of small intestines from CFTR+/+ and CFTR−/− rabbits after treated 1 μM indomethcin.
CFTR expression in the airways and in the small intestines of wild-type and CFTR−/− rabbits was evaluated by immunoflorescence. […] Next, CFTR Cl secretion in these animals were examined. Ileum tissues from CFTR+/+ and CFTR−/− rabbits were used for CFTR functional assay. Short-circuit currents from these tissues with muscle layer on serosal side removed were measured by Ussing chamber. […] This situation was also observed in ferrets and pigs.

| SMILES | forskolin-stimulated current blocked (GlyH101 at 10 μM) | forskolin-stimulated current blocked |
| --- | --- | --- |
| O=C(CNc1ccc2ccccc2c1)N/N=C/c1cc(Br)c(O)c(Br)c1O [GlyH101] | Only a small fraction |  |
| CCCCNc1cc(C(=O)O)cc(S(N)(=O)=O)c1Oc1ccccc1 [bumetanide] |  | more than 50% |
